Measured values as given in patent US20030186967A1, “Acylresorcinol derivatives are selective vitronectin receptor inhibitors” (American Home Products Corporation, priority 1998, published 2003).

Target: T1, Vitronectin receptor αVβ3 (Homo sapiens, UniProt P05106+P06756)
T1 construct: expressed in transfected cells; host or cells: 512P5 cells (plasma membrane preparation)
Assay: Vitronectin Receptor αVβ3 Binding Assay
Details: read-out: VnR (IC50μM)

T1 sequence (P06756 31-889 limits assumed): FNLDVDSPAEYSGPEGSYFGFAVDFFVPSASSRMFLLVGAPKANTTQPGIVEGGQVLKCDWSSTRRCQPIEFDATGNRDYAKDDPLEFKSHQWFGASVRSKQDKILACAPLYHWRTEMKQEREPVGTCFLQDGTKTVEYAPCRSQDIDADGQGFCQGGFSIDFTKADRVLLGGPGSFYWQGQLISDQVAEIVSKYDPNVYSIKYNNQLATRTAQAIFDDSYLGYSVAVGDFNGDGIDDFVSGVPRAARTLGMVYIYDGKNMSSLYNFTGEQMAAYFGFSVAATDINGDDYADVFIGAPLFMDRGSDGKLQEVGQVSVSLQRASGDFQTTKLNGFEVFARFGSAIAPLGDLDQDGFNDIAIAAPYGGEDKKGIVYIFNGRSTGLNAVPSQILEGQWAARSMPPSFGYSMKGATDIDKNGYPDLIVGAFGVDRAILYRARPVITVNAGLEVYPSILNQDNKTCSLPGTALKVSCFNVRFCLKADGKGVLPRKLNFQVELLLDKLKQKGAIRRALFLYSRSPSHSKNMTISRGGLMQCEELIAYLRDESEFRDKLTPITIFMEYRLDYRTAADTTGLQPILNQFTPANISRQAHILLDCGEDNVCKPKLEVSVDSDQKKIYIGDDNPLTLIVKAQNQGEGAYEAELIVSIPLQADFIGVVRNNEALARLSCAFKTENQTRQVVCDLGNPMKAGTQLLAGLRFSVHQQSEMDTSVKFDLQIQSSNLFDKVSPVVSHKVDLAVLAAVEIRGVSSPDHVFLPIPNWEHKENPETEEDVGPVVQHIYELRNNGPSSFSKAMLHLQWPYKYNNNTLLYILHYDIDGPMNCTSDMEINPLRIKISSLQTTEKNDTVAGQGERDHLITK
T1 sequence (P06756 891-1048 partner limits assumed): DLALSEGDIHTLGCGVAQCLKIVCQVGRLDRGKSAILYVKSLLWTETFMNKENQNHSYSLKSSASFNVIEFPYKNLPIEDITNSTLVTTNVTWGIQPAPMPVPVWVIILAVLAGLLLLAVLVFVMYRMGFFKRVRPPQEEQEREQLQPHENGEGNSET
T1 sequence (P05106 27-788): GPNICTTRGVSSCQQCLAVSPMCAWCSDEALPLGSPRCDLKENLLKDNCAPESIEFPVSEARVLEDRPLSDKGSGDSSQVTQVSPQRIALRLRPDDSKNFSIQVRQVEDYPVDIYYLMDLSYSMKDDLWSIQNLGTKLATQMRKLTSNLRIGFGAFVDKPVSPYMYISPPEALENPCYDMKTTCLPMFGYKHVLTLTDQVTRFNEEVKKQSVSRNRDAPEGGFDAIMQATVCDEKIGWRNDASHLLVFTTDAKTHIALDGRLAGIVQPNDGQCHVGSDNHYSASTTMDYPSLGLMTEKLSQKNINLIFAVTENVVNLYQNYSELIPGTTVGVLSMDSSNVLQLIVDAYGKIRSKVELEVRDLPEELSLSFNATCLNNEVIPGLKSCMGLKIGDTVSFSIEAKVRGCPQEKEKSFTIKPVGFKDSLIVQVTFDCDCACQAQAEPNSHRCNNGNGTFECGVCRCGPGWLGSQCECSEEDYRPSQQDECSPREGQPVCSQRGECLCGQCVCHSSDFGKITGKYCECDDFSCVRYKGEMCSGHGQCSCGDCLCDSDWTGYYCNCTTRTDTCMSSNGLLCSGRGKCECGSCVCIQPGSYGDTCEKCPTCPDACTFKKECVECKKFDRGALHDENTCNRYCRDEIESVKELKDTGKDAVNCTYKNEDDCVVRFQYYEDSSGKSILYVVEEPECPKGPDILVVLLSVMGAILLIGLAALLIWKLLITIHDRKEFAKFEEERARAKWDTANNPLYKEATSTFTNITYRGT

Compound	IC50
N=C(N)NCCOc1ccc(C(=O)NC[C@H](NC(=O)c2ccccc2Br)C(=O)O)c(O)c1 [Example 212, (2S)-3-{[4-(2-{[amino(imino)methyl]amino}ethoxy)-2-hydroxybenzoyl]amino-}-2-[(2-bromobenzoyl)amino]propanoic acid]	13.1 µM
N=C(N)NCCOc1ccc(C(=O)NC[C@H](NC(=O)c2ccc(Br)cc2)C(=O)O)c(O)c1 [Example 213, (2S)-3-{[4-(2-{[amino(imino)methyl]amino}ethoxy)-2-hydroxybenzoyl]amino}-2-[(4-bromobenzoyl)amino]propanoic acid]	> 1 µM
Cc1cccc(C(=O)N[C@@H](CNC(=O)c2ccc(OCCNC(=N)N)cc2O)C(=O)O)c1C [Example 214, (2S)-3-{[4-(2-{[amino(imino)methyl]amino}ethoxy)-2-hydroxybenzoyl]amino}-2-[(2,3-dimethylbenzoyl)amino]propanoic acid]	2.31 µM
N=C(N)NCCOc1ccc(C(=O)NC[C@H](NC(=O)c2cccc(Cl)c2)C(=O)O)c(O)c1 [Example 215, (2S)-3-{[4-(2-{[amino(imino)methyl]amino}ethoxy)-2-hydroxybenzoyl]amino}-2-[(3-chlorobenzoyl)amino]propanoic acid]	> 1 µM
CC(C)(C)COC(=O)N[C@@H](CNC(=O)c1ccc(OCCNC(=O)NCc2ccccc2)cc1O)C(=O)O [Example 219, (2S)-3-{[4-(2-{[(benzylamino)carbonyl]amino}ethoxy)-2-hydroxy-benzoyl]amino}-2-{[(neopentyloxy)carbonyl]amino}propanoic acid]	1.8 µM
O=C(NCCOc1ccc(C(=O)NC[C@H](NC(=O)OCc2ccccc2)C(=O)O)c(O)c1)NCc1ccccc1 [Example 220, (2S)-3-{[4-(2-{[(benzylamino)carbonyl]amino}ethoxy)-2-hydroxybenzoyl]amino}-2-{[(benzyloxy)carbonyl]amino}propanoic acid]	8.8 µM
COC(=O)N[C@@H](CNC(=O)c1ccc(OCCNC(=O)NCc2ccccc2)cc1O)C(=O)O [Example 221, (2S)-3-{[4-(2-{[(benzylamino)carbonyl]amino}ethoxy)-2-hydroxybenzoyl]amino}-2-[(methoxycarbonyl)amino]propanoic acid]	22.8 µM
CCOC(=O)N[C@@H](CNC(=O)c1ccc(OCCNC(=O)NCc2ccccc2)cc1O)C(=O)O [Example 222, (2S)-3-{[4-(2-{[(benzylamino)carbonyl]amino}ethoxy)-2-hydroxybenzoyl]amino}-2-[(ethoxycarbonyl)amino]propanoic acid]	20.8 µM
CCCOC(=O)N[C@@H](CNC(=O)c1ccc(OCCNC(=O)NCc2ccccc2)cc1O)C(=O)O [Example 223, (2S)-3-{[4-(2-{[(benzylamino)carbonyl]amino}ethoxy)-2-hydroxybenzoyl]amino}-2-[(propoxycarbonyl)amino]propanoic acid]	5.5 µM
CC(C)OC(=O)N[C@@H](CNC(=O)c1ccc(OCCNC(=O)NCc2ccccc2)cc1O)C(=O)O [Example 224, (2S)-3-{[4-(2-{[(benzylamino)carbonyl]amino}ethoxy)-2-hydroxybenzoyl]amino}-2-[(isopropoxycarbonyl)amino]propanoic acid]	4.1 µM
C=CCOC(=O)N[C@@H](CNC(=O)c1ccc(OCCNC(=O)NCc2ccccc2)cc1O)C(=O)O [Example 225, (2S)-2-{[(allyloxy)carbonyl]amino}-3-{[4-(2-{[(benzylamino)carbonyl]amino}-ethoxy)-2-hydroxybenzoyl]amino}propanoic acid]	5 µM
C=CCCOC(=O)N[C@@H](CNC(=O)c1ccc(OCCNC(=O)NCc2ccccc2)cc1O)C(=O)O [Example 226, (2S)-3-{[4-(2-{[(benzylamino)carbonyl]amino}ethoxy)-2-hydroxybenzoyl]amino}-2-{[(but-3-enyloxy)carbonyl]amino}propanoic acid]	5.2 µM
C#CCOC(=O)N[C@@H](CNC(=O)c1ccc(OCCNC(=O)NCc2ccccc2)cc1O)C(=O)O [Example 227, (2S)-3-{[4-(2-{[(benzylamino)carbonyl]amino}ethoxy)-2-hydroxybenzoyl]amino}-2-{[(prop-2-ynyloxy)carbonyl]amino}propanoic acid]	5.1 µM
CCCCCCOC(=O)N[C@@H](CNC(=O)c1ccc(OCCNC(=O)NCc2ccccc2)cc1O)C(=O)O [Example 228, (2S)-3-{[4-(2-{[(benzylamino)carbonyl]amino}ethoxy)-2-hydroxybenzoyl]amino}-2-{[(hexyloxy)carbonyl]amino}propanoic acid]	10.2 µM
CCCCCCCCOC(=O)N[C@@H](CNC(=O)c1ccc(OCCNC(=O)NCc2ccccc2)cc1O)C(=O)O [Example 229, (2S)-3-{[4-(2-{[(benzylamino)carbonyl]amino}ethoxy)-2-hydroxybenzoyl]amino}-2-{[(octyloxy)carbonyl]amino}propanoic acid]	17.1 µM
O=C(NCCOc1ccc(C(=O)NC[C@H](NC(=O)OCC(Cl)(Cl)Cl)C(=O)O)c(O)c1)NCc1ccccc1 [Example 230, (2S)-3-{[4-(2-{[(benzylamino)carbonyl]amino}ethoxy)-2-hydroxybenzoyl]amino}-2-{[(2,2,2-trichloroethoxy)carbonyl]amino}propanoic acid]	4 µM

Compound	IC50
CCCCOC(=O)N[C@@H](CNC(=O)c1ccc(OCCNC(=O)NCc2ccccc2)cc1O)C(=O)O [Example 231, (2S)-3-{[4-(2-{[(benzylamino)carbonyl]amino}ethoxy)-2-hydroxybenzoyl]amino}-2-[(butoxycarbonyl)amino]propanoic acid]	6.7 µM
CC(C)COC(=O)N[C@@H](CNC(=O)c1ccc(OCCNC(=O)NCc2ccccc2)cc1O)C(=O)O [Example 232, (2S)-3-{[4-(2-{[(benzylamino)carbonyl]amino}ethoxy)-2-hydroxybenzoyl]amino}-2-[(isobutoxycarbonyl)amino]propanoic acid]	3.7 µM
O=C(NCCOc1ccc(C(=O)NC[C@H](NC(=O)OCc2ccccc2)C(=O)O)c(O)c1)NCc1cccnc1 [Example 233]	3.3 µM
COC(=O)N[C@@H](CNC(=O)c1ccc(OCCNC(=O)NCc2cccnc2)cc1O)C(=O)O [Example 234, (2S)-3-({2-hydroxy-4-[2-({[(pyridin-3-ylmethyl)amino]carbonyl}-amino)ethoxy]-benzoyl}amino)-2-[(methoxycarbonyl)amino]propanoic acid]	8.7 µM
CCOC(=O)N[C@@H](CNC(=O)c1ccc(OCCNC(=O)NCc2cccnc2)cc1O)C(=O)O [Example 235, (2S)-2-[(ethoxycarbonyl)amino]-3-({2-hydroxy-4-[2-({[(pyridin-3-ylmethyl)amino]-carbonyl}amino)ethoxy]benzoyl}amino)propanoic acid]	3 µM
CCCOC(=O)N[C@@H](CNC(=O)c1ccc(OCCNC(=O)NCc2cccnc2)cc1O)C(=O)O [Example 236]	1.9 µM
CC(C)OC(=O)N[C@@H](CNC(=O)c1ccc(OCCNC(=O)NCc2cccnc2)cc1O)C(=O)O [Example 237, (2S)-3-({2-hydroxy-4-[2-({[(pyridin-3-ylmethyl)amino]carbonyl}-amino)ethoxy]-benzoyl}amino)-2-[(isopropoxycarbonyl)amino]propanoic acid]	2.7 µM
C=CCCOC(=O)N[C@@H](CNC(=O)c1ccc(OCCNC(=O)NCc2cccnc2)cc1O)C(=O)O [Example 239, (2S)-2-{[(but-3-enyloxy)carbonyl]amino}-3-({2-hydroxy-4-[2-({[(pyridin-3-ylmethyl)amino]carbonyl}amino)ethoxy]benzoyl}amino)propanoic acid]	2.1 µM
CCCCCCOC(=O)N[C@@H](CNC(=O)c1ccc(OCCNC(=O)NCc2cccnc2)cc1O)C(=O)O [Example 241, (2S)-2-{[(hexyloxy)carbonyl]amino}-3-({2-hydroxy-4-[2-({[(pyridin-3-ylmethyl)-amino]carbonyl}amino)ethoxy]benzoyl}amino)propanoic acid]	4.1 µM
CCCCCCCCOC(=O)N[C@@H](CNC(=O)c1ccc(OCCNC(=O)NCc2cccnc2)cc1O)C(=O)O [Example 242, (2S)-3-({2-hydroxy-4-[2-({[(pyridin-3-ylmethyl)amino]carbonyl}-amino)ethoxy]-benzoyl}amino)-2-{[(octyloxy)carbonyl]amino}propanoic acid]	7.9 µM
CC(C)(C)COC(=O)N[C@@H](CNC(=O)c1ccc(OCCNC(=O)NCc2cccnc2)cc1O)C(=O)O [Example 243, (2S)-3-({2-hydroxy-4-[2-({[(pyridin-3-ylmethyl)amino]carbonyl}-amino)ethoxy]-benzoyl}amino)-2-{[(neopentyloxy)carbonyl]amino}propanoic acid]	0.69 µM
O=C(NCCOc1ccc(C(=O)NC[C@H](NC(=O)OCC(Cl)(Cl)Cl)C(=O)O)c(O)c1)NCc1cccnc1 [Example 244, (2S)-3-({2-hydroxy-4-[2-({[(pyridin-3-ylmethyl)amino]carbonyl}amino)-ethoxy]benzoyl}amino)-2-{[(2,2,2-trichloroethoxy)carbonyl]amino}propanoic acid]	1.6 µM
CC(C)COC(=O)N[C@@H](CNC(=O)c1ccc(OCCNC(=O)NCc2cccnc2)cc1O)C(=O)O [Example 246, (2S)-3-({2-hydroxy-4-[2-({[(pyridin-3-ylmethyl)amino]carbonyl}-amino)ethoxy]-benzoyl}amino)-2-[(isobutoxycarbonyl)amino]propanoic acid]	1.6 µM
O=C(NCCOc1ccc(C(=O)NC[C@H](NC(=O)OCc2ccccc2)C(=O)O)c(O)c1)NCc1ccncc1 [Example 247, (2S)-2-{[(benzyloxy)carbonyl]amino}-3-({2-hydroxy-4-[2-({[(pyridin-4-ylmethyl)amino]carbonyl}amino)ethoxy]benzoyl}amino)propanoic acid]	5.5 µM
CCCCCCOC(=O)N[C@@H](CNC(=O)c1ccc(OCCNC(=O)NCc2ccncc2)cc1O)C(=O)O [Example 255, (2S)-2-{[(hexyloxy)carbonyl]amino}-3-({2-hydroxy-4-[2-({[(pyridin-4-ylmethyl)amino]carbonyl}amino)ethoxy]benzoyl}amino)propanoic acid]	5.31 µM
